# Reference: US12023331B2 (priority 2018, dated 2024)
# Legend:
# 5-HT2 receptor = experiment: DOI-induced head twitch model in mice; format: in vivo; conditions: compound orally 0.5 hr before DOI
# [1] = system: NMDA-induced currents in rat mPFC; experiment: NMDA-induced currents in rat mPFC slices, whole-cell patch clamp; format: cell-based
# [2] = system: AMPA-induced currents in rat mPFC; experiment: AMPA-induced currents in rat mPFC slices, whole-cell patch clamp; format: cell-based
# Experimental: Combined administration of the antipsychotic, olanzapine, and the SSRI, fluoxetine, similarly induces rapid antidepressant activity in humans and animals (Tohen et al., 2010); likewise, combined application of olanzapine and fluoxetine is required to induce AMPA receptor currents in vitro.
# In contrast, the antipsychotic drug olanzapine, is found to enhance AMPA-induced currents only in the presence of the SSRI fluoxetine. 3 nM olanzapine alone results in about 100% of the AMPA-induced current of the control, while 100 nM fluoxetine results in about 90% of the AMPA-induced current of the control. However, the combination of 3 nM olanzapine and 100 nM fluoxetine is found to synergistically result in almost 150% of the AMPA-induced current of control. When SCH 23390 (1 μM) is combined with the olanzapine and fluoxetine, however, the AMPA-induced current returns to approximately 100% of the control level.
# mTORC1 signaling pathway = experiment: Phosphorylation of mTOR pathway proteins in rat PFC; format: in vivo; conditions: for mTOR phosphorylation (Serine 2448) / increase in phosphorylation of AKT at thr308 / p70s6K phosphorylation (Threonine 389): rat PFC, 30 mg/kg ketamine or 3 mg/kg Formula A i.p.; for increase in phosphorylation of AKT at thr308: both 1 hour and 24 hours post-administration; for p70s6K phosphorylation (Threonine 389): over 24 hours
# [3] = Clinical studies in patients with acute exacerbated schizophrenia; format: in vivo, human; conditions: 60 mg P.O. once daily up to 28 days
# Source text: Social avoidance can be a critical and debilitating symptom in patients suffering from anxiety disorders, especially social anxiety disorder, as well as in patients suffering from traumatic anxiety disorders. Social avoidance is often one of the key determinants of whether a person with a severe anxiety disorder is capable of maintaining familial relationships or employment relationships. […] Negative symptoms of schizophrenia can be divided into two categories: emotional experience (e.g., emotional withdrawal, passive social withdrawal, active social avoidance) and emotional expression (e.g., blunted effect, poor rapport, lack of spontaneity, and motor retardation). […] These are the symptoms that are most highly correlated with interpersonal functioning.
# Mu opiate receptor = Mu opiate receptor (Homo sapiens (Human), UniProt P35372); experiment: biochemical
# [4] = 40-minute infusion, total dose 0.5 mg/kg; after 24 hours; cited from earlier work
compound,measurement,setting,value
"O=C1CN2c3c(cccc3[C@@H]3CN(CCCOc4ccc(F)cc4)CC[C@@H]32)N1 [Example 1, (6bR,10aS)-8-(3-(4-fluorophenoxy)propyl)-6b,7,8,9,10,10a-hexahydro-1H-pyrido[3′,4′:4,5]pyrrolo[1,2,3-de]quinoxalin-2(3H)-one]",EC50 for reducing DOI-induced head twitches,5-HT2 receptor,"0.44 mg/kg, p.o."
"CN1CCN2c3c(cccc31)[C@@H]1CN(CCCC(=O)c3ccc(F)cc3)CC[C@@H]12 [Formula A, lumateperone]",NMDA-induced currents compared to control,[1]; 30 nM,~150%
same,NMDA-induced currents compared to control,[1]; Formula A 30 nM combined with SCH 23390 (1 μM),about 90 % of control
same,AMPA-induced currents compared to control,"[2]; Formula A 30 nM, alone and with SCH 23390 (1 μM), rat mPFC",Substantially the same results
same,activation of the mTORC1 signaling pathway in mPFC,"mTORC1 signaling pathway; adult rats, 1 to 8 mg/kg i.p., 60 min, 90 min or 24 hours",rapidly activates the mTORC1 signaling pathway
same,mTOR phosphorylation (Serine 2448),mTORC1 signaling pathway,Neither ketamine nor the Compound of Formula A results in a change
same,increase in phosphorylation of AKT at thr308,mTORC1 signaling pathway,~50%
same,p70s6K phosphorylation (Threonine 389),mTORC1 signaling pathway,progressively increases
same,symptoms of emotional experience compared to placebo,[3],significant and unexpected improvement
same,Ki,Mu opiate receptor,> 10 µM
CNCCC(Oc1ccc(C(F)(F)F)cc1)c1ccccc1 (stereo not shown) [fluoxetine],AMPA-induced current of the control,[2]; 100 nM fluoxetine,about 90%
CNC1(c2ccccc2Cl)CCCCC1=O (stereo not shown) [ketamine],mTOR phosphorylation (Serine 2448),mTORC1 signaling pathway,Neither ketamine nor the Compound of Formula A results in a change
same,increase in phosphorylation of AKT at thr308,mTORC1 signaling pathway,~50%
same,p70s6K phosphorylation (Threonine 389),mTORC1 signaling pathway,transiently increase
same,ratings on the Hamilton Depression Rating Scale (HDRS) compared to placebo,[4],significantly improved ratings
Cc1cc2c(s1)Nc1ccccc1N=C2N1CCN(C)CC1 [olanzapine],AMPA-induced current of the control,[2]; 3 nM olanzapine alone,about 100%
